By IC50 is commonly meant the midpoint of a concentration-inhibition curve. The low end stands for greater potency in that assay, the high end for weaker potency in that assay.

In patent US6552216B1, “Molecular model for VLA-4 inhibitors” (Biogen, Inc., priority 1996, dated 2003) one finds IC50 data, which are given here for one compound.

The test addresses VLA-4 (Homo sapiens, UniProt P05556+P13612). The test is described as follows: VLA-4 direct binding assay (DBA).
Description: (§1) Those skilled in the art routinely perform such assays, and can readily determine the activity of the experimental compound.
as §1

VLA-4, sequence (P13612 34-1032): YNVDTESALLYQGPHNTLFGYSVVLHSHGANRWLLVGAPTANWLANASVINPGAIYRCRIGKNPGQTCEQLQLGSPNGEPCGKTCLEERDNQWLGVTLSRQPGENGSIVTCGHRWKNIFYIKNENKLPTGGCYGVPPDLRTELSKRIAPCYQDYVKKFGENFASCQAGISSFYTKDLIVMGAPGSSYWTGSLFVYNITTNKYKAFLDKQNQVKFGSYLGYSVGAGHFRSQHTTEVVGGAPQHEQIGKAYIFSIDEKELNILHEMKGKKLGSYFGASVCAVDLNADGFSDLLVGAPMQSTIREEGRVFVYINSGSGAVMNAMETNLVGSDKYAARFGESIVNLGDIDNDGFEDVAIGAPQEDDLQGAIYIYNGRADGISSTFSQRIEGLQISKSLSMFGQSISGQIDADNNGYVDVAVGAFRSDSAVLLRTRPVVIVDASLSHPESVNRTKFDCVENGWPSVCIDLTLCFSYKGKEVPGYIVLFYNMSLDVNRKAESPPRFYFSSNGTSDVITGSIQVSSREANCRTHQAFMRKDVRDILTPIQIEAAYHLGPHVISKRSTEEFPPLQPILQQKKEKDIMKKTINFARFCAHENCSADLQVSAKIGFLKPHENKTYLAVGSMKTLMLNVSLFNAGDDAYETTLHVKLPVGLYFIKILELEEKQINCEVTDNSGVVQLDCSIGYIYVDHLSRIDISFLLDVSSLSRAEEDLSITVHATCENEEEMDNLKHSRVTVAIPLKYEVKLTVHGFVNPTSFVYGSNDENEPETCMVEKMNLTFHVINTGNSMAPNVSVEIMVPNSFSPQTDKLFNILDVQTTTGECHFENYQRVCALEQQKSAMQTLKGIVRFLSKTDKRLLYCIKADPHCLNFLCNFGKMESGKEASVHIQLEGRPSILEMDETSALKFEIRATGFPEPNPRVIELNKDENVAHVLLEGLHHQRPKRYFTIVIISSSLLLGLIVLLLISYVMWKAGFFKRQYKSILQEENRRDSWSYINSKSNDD
VLA-4, sequence (P05556 21-798): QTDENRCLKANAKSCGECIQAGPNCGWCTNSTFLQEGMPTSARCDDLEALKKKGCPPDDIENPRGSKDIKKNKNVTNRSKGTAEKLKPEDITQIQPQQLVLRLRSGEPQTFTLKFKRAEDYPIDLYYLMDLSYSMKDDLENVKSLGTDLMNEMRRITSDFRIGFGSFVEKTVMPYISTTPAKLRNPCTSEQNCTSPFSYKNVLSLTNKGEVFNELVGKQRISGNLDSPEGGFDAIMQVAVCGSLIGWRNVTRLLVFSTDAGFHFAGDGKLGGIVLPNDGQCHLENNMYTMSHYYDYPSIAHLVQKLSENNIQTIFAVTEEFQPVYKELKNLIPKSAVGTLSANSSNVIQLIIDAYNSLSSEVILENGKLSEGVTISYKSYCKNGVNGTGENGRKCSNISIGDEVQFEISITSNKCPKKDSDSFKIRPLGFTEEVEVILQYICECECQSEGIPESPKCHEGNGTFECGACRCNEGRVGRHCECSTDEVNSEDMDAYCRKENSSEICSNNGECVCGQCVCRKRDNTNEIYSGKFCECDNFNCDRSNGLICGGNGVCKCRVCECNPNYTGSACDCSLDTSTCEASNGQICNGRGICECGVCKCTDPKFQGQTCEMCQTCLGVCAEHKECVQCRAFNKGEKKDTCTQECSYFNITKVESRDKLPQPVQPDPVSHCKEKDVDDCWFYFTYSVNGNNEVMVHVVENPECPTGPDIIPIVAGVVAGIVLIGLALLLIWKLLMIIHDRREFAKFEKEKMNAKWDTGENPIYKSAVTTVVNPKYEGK

Compound `CC(C)C[C@H](NC(=O)Cc1ccccc1)C(=O)N[C@@H](CC(=O)O)C(=O)N[C@H](C(=O)N1CCC[C@H]1C(=O)O)C(C)C` [Phenylacetyl-Leu-Asp-Val-Pro] yielded an IC50 of 2000 nM.
